Data reported in patent publication US11999676B2, “Vesicular monoamine transporter-2 ligands and their use in the treatment of psychostimulant abuse” (priority 2016, dated 2024).
Like-named read-outs stand apart in the source and are kept apart here.

How the values were obtained:
in vitro [1] = conditions: female, Sprague-Dawley, rat, microsomes, pH 7.4, Microsomal stability assays: Clearance
[2] = Microsomal stability assay, rat liver microsomes; conditions: female, Sprague-Dawley, rat, pH 7.4, Microsomal stability assays: Half-life
VMAT2 [3] = molecular target: T1, VMAT2 (Rattus norvegicus (Rat), UniProt Q01827); assay: [3H]Dopamine ([3H]DA) uptake assay, vesicular preparation; assay type: biochemical
in vitro [4] = conditions: both, human, microsomes, pH 7.4, Microsomal stability assays: Clearance
[5] = Microsomal stability assay, human liver microsomes; conditions: for half-life at 0.08 µM: both, human, pH 7.4, Microsomal stability assays: Half-life
[6] = molecular target: hERG channel (selectivity at VMAT2 over hERG) (Homo sapiens (Human), UniProt Q12809); assay: [3H]Dofetilide binding assay, HEK-293 cell membrane preparation; conditions: human, pH 7.4
rats = assay: METH-stimulated locomotor activity in rats; assay type: in vivo, rat; conditions: s.c.
[7] = molecular target: dopamine transporter (DAT) (Rattus norvegicus (Rat), UniProt P23977); assay: [3H]DA uptake assay, synaptosomal preparation; assay type: biochemical
Method: (§1) [^3H]DA and [^3H]5-HT uptake into striatal synaptosomes was determined to evaluate compound inhibition of the dopamine transporter (DAT) and the serotonin transporter (SERT), respectively.

[8] = molecular target: serotonin transporter (SERT) (Rattus norvegicus (Rat), UniProt P31652); assay: [3H]5-HT uptake assay, synaptosomal preparation; assay type: biochemical
Method: as §1

hERG channel = hERG channel (Homo sapiens (Human), UniProt Q12809); assay: [3H]Dofetilide binding assay, HEK-293 cell membrane preparation
VMAT2 [9] = molecular target: T1, VMAT2; conditions: rat brain vesicles; read-out: inhibition of [3H]DA uptake into rat brain vesicles via VMAT2 (Ki); cited from earlier work
rat striatal slices = conditions: cited from earlier work
[10] = in vivo; cited from earlier work
[11] = [3H]DA uptake, rat, read-out: VMAT2 (rat) Inhibition: Mean Ki ± Standard Deviation
[12] = [3H]DA uptake (Ki) VMAT2, rat striatal synaptic vesicles
[13] = [3H]dofetilide, HEK-293 cell membranes, read-out: hERG Binding: Mean Ki ± Standard Deviation

Sequence of hERG channel (Q12809 whole entry): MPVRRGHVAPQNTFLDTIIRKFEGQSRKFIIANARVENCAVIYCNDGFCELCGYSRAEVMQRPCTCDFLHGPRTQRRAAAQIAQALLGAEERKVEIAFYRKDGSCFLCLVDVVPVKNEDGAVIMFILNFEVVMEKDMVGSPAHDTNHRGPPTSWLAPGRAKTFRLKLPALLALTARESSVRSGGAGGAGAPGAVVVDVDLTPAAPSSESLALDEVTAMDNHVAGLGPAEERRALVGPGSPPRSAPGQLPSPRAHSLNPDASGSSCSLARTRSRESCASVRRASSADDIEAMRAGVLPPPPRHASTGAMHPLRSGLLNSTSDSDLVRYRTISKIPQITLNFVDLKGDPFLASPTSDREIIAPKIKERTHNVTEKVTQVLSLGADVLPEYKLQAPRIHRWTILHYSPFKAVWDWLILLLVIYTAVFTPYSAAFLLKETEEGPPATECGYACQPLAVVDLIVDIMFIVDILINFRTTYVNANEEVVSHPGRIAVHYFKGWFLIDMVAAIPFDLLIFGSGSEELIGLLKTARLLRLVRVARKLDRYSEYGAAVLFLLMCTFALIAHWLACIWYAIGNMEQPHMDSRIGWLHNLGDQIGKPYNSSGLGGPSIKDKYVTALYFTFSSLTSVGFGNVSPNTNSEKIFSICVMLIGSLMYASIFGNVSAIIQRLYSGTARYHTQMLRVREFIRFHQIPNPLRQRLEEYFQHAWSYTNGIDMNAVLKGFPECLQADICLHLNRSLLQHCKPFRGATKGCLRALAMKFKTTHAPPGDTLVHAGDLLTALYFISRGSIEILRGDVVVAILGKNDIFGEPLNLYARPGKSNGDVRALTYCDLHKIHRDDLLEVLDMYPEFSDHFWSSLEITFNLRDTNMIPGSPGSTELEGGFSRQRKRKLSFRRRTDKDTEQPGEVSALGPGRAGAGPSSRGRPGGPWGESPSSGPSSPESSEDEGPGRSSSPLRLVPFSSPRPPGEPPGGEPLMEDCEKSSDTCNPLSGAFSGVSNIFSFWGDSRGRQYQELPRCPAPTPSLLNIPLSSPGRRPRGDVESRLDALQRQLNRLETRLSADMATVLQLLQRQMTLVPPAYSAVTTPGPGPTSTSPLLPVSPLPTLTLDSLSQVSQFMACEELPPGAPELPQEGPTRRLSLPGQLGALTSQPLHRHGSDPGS
Sequence of hERG channel (selectivity at VMAT2 over hERG) (Q12809 whole entry): as above

SMILES | CLint scaled at 0.08 µM (in vitro [1]) | half-life at 0.08 µM ([2]; liver microsomes) | Ki (VMAT2 [3]; [11]) | CLint scaled at 0.08 µM (in vitro [4]) | further results
OCC(Cc1ccc(F)cc1)NCCCc1ccc(Br)cc1 (stereo not drawn) [Compound 155] | > 450 mL/min/kg | < 6 min | – | – | –
O=[N+]([O-])c1ccc(CCCNC(CF)Cc2ccc(F)cc2)cc1 (stereo not drawn) [Compound 124] | 116 mL/min/kg | – | – | – | half-life at 0.08 µM ([2]; rat liver microsomes): 24 min
OCC(Cc1ccc(F)cc1)NCCCc1ccc(Br)cc1 (stereo not drawn) [Compound 154] | – | – | 69.1 ± 13.6 nM | < 5.2 mL/min/kg | half-life at 0.08 µM ([5]; pooled liver microsomes): > 240 min
CC(Cc1ccc(NC=O)cc1)N(C=O)CCCc1ccccc1 (stereo not drawn) [Compound 75] | – | – | 22700 ± 432 nM | 121 mL/min/kg | half-life at 0.08 µM ([5]; pooled liver microsomes): 12 min
COc1ccc(CCCN[C@@H](C)Cc2ccccc2)cc1.Cl [Compound 10] | – | – | – | – | Ki (VMAT2 [3]; Ki value at VMAT2, text value): 25.5 ± 3.57 nM; Ki (VMAT2 [3]; [12]): 26 ± 3.6 nM; selectivity ratio at 1 hr [6]: > 30; METH-stimulated locomotor activity (rats; 17 mg/kg): significant reduction; selectivity at VMAT2 over DAT [7]: > 30 fold; selectivity at VMAT2 over SERT [8]: > 30 fold
FCC(Cc1ccc(F)cc1)NCCCc1ccnc2ccccc12 (stereo not drawn) [Compound 149] | – | – | – | 162 mL/min/kg | Microsomal stability assays: Half-life [5]: 6 min
CC(Cc1ccc(NC=O)cc1)N(C=O)CCCc1ccccc1 (stereo not drawn) [Compound 76] | 56 mL/min/kg | 48 min | – | – | –
FCC(Cc1ccc(-c2cccnc2)cc1)NCCCc1ccc(F)cc1 (stereo not drawn) [Compound 83] | 113 mL/min/kg | 24 min | 27.7 ± 13.9 nM | – | Ki (hERG channel; [13]): 6750 ± 3620 nM
FCC(Cc1ccc(-c2cncnc2)cc1)NCCCc1ccc(F)cc1 (stereo not drawn) [Compound 68] | – | – | 5.53 ± 0.567 nM | > 400 mL/min/kg | half-life at 0.08 µM ([5]; pooled liver microsomes): < 6 min; Ki (hERG channel; [13]): 633 ± 46.3 nM
O=CNc1ccc(CC(CF)NCCCc2ccc(F)cc2)cc1 (stereo not drawn) [Compound 72] | – | – | 16.4 ± 2.89 nM | 26.5 mL/min/kg | half-life at 0.08 µM ([5]; pooled liver microsomes): 48 min; Ki (hERG channel; [13]): 516 ± 63.6 nM
OCC(Cc1ccc(F)cc1)NCCCn1cccn1 (stereo not drawn) [Compound 131] | 139 mL/min/kg | 18 min | – | – | –
Fc1ccc(CCCNC(Cc2ccc(F)cc2)C(F)F)cc1 (stereo not drawn) [Compound 81] | 83.2 mL/min/kg | 36 min | 386 ± 194 nM | – | –
FCC(Cc1ccc(F)cc1)NCCCc1ccnc2ccccc12 (stereo not drawn) [Compound 148] | > 400 mL/min/kg | < 6 min | 70.3 ± 13 nM | – | Ki (hERG channel; [13]): 4700 ± 373 nM
O=[N+]([O-])c1ccc(CCCNC(CF)Cc2ccc(F)cc2)cc1 (stereo not drawn) [Compound 123] | – | – | – | 18.1 mL/min/kg | half-life at 0.08 µM ([5]; pooled human liver microsomes): 72 min; Ki (hERG channel): 223 ± 199 nM
OCC(Cc1ccc(F)cc1)NCCCn1cccn1 (stereo not drawn) [Compound 130] | – | – | 634 ± 195 nM | 37.3 mL/min/kg | half-life at 0.08 µM ([5]; pooled liver microsomes): 36 min
O=CNc1ccc(CC(CF)NCCCc2ccc(F)cc2)cc1 (stereo not drawn) [Compound 73] | 43.7 mL/min/kg | 66 min | – | – | –
FCC(Cc1ccc(F)cc1)NCCCc1ccncc1 (stereo not drawn) [Compound 142] | 38.3 mL/min/kg | 30 min | 117 ± 18.7 nM | – | –
Nc1ccc(CC(CF)NCCCc2ccc(F)cc2)cc1 (stereo not drawn) [Compound 80, [N-3-(4-fluorophenyl)-propan-1-yl]-3-(4-aminophenyl)-1-fluoro-2-propylamine] | – | – | – | 29.5 mL/min/kg | half-life at 0.08 µM ([5]; pooled liver microsomes): 42 min
FCC(Cc1ccc(-c2cncnc2)cc1)NCCCc1ccc(F)cc1 (stereo not drawn) [Compound 69] | 76.8 mL/min/kg | 36 min | – | – | –
c1ccc(CC[C@H]2CCC[C@@H](CCc3ccccc3)N2)cc1 [Nor-Lobelane] | – | – | – | – | Ki (VMAT2 [9]): 44 nM
CN1[C@@H](CCc2ccccc2)CCC[C@H]1CCc1ccccc1 [Lobelane] | – | – | – | – | METH-evoked DA overflow (rat striatal slices): decreases; METH self-administration [10]: decreases
COc1ccc(CCCN[C@H](C)Cc2ccccc2)cc1.Cl [Compound 9] | – | – | – | – | Ki (VMAT2 [3]; Ki value at VMAT2, text value): 8.71 ± 3.65 nM; Ki (VMAT2 [3]; [12]): 8.7 ± 6.5 nM; selectivity ratio at 1 hr [6]: > 30; METH-stimulated locomotor activity (rats; 3 mg/kg): significant reduction; selectivity at VMAT2 over DAT [7]: > 30 fold; selectivity at VMAT2 over SERT [8]: > 30 fold
Nc1ccc(CC(CF)NCCCc2ccc(F)cc2)cc1 (stereo not drawn) [Compound 79, [N-3-(4-fluorophenyl)-propan-1-yl]-3-(4-aminophenyl)-1-fluoro-2-propylamine] | 21.1 mL/min/kg | 132 min | 19.8 ± 9.29 nM | – | Ki (hERG channel; [13]): 3440 ± 983 nM
